Each structure is given as a SMILES string.

Broadly, the IC50 is the midpoint of a concentration-inhibition curve.

In the experiment the test system is IL-12. In words: Human in vitro assay: inhibition of IL-12 production in IFNγ/LPS- or IFNγ/SAC-stimulated human PBMC or THP-1 cells (ELISA). Type of experiment: cell-based. Conditions: read-out: IC50 Range (representative in vitro IC50 data). The source says: The biological activities of a heterocyclic compound can be evaluated by a number of cell-based assays. One of such assays can be conducted using cells from human peripheral blood mononuclear cells (PBMC) or human monocytic cell line (THP-1). The cells are stimulated with a combination of human interferon-γ (IFNγ) and lipopolysaccharide or a combination of IFNγ and Staphylococcus aureus Cowan I in the presence of a test compound. The level of inhibition of IL-12 production can be measured by determining the amount of p70 by using a sandwich ELISA assay with anti-human IL-12 antibodies. IC50 of the test compound can then be determined. Specifically, PBMC or THP-1 cells are incubated with the test compound. Cell viability was assessed using the bioreduction of MTS [3-(4,5-dimethylthiazol-2-yl)-5-(3-carboxymethoxyphenyl)-2-(4-sulfophenyl)-2H-tetrazolium](Promega, Madison, Wis.).
Human In Vitro Assay. Human PBMC were isolated by centrifugation using Ficoll-Paque (Pharmacia Biotech, Uppsala, Sweden) and prepared in RPMI medium supplemented with 10% fetal calf serum (FCS), 100 U/mL penicillin, and 100 μg/mL streptomycin. PBMC were plated in wells of a 96-well plate at a concentration of 5×10^5 cells/well, and primed by adding IFNγ (30 U/mL) for 22 h and stimulated by adding LPS (1 μg/mL), or by adding IFNγ (100 U/mL) and then stimulated by adding SAC (0.01%). A test pyrimidine compound was dissolved in DMSO, and added to wells of the 96-well plate. The final DMSO concentration was adjusted to 0.25% in all cultures, including the compound-free control. Human THP-1 cells were plated in wells, primed by adding IFNγ (100 U/mL) for 22 h and stimulated by adding SAC (0.025%) in the presence of different concentrations of the pyrimidine compound. Cell-free supernatants were taken 18 h later for measurement of cytokines. Cell viability was assessed using the bioreduction of MTS. Cell survival was estimated by determining the ratio of the absorbance in compound-treated groups versus compound-free control.
The supernatant was assayed for the amount of IL-12p40, IL-12p70, or IL-10 by using a sandwich ELISA with anti-human antibodies, i.e., a Human IL-12 p40 ELISA kit from R&D Systems (Berkeley, Calif.), and a Human IL-12 p70 or IL-10 ELISA kit from Endogen (Cambridge, Mass.). Assays were based on the manufacturer's instructions.
The biological activities of pyrimidine compounds were tested on human PBMC or THP-1 cells.
For orientation: ELISA stands for enzyme-linked immunosorbent assay.
Consider `Cc1[nH]c2ccc(NC(=O)c3cc(O)nc(N4CCOCC4)n3)cc2c1C` [Compound 254, N-(2,3-dimethyl-1H-indol-5-yl)-6-hydroxy-2-morpholinopyrimidine-4-carboxamide], for which the IC50 is below 1000 nM. For `CC(=O)N1CCN(c2cc(C(=O)Nc3ccc4[nH]c5c(c4c3)CCCC5)nc(N3CCOCC3)n2)CC1` [Compound 262, 6-(4-acetylpiperazin-1-yl)-2-morpholino-N-(2,3,4,9-tetrahydro-1H-carbazol-6-yl)pyrimidine-4-carboxamide] the value was below 1000 nM. The result for `Cc1[nH]c2ccc(NC(=O)c3cc(NCC(=O)N4CCCC4)nc(N4CCOCC4)n3)cc2c1C` [Compound 108, 2-Morpholin-4-yl-6-(2-oxo-2-pyrrolidin-1-yl-ethylamino)-pyrimidine-4-carboxylic acid (2,3-dimethyl-1H-indol-5-yl)-amide] reads below 1000 nM; that for `Cc1cccc(N(C)C(=O)Nc2cc(N3CCOCC3)nc(OCCc3ccccn3)n2)c1` [Compound 69, 1-Methyl-3-[6-morpholin-4-yl-2-(2-pyridin-2-yl-ethoxy)-pyrimidin-4-yl]-1-m-tolyl-urea], at least 1000 nM.

As for `CN(CCO)c1cc(C(=O)Nc2cccc(-n3cccc3)c2)nc(N2CCOCC2)n1` [Compound 304, 6-[(2-Hydroxy-ethyl)-methyl-amino]-2-morpholin-4-yl-pyrimidine-4-carboxylic acid (3-pyrrol-1-yl-phenyl)-amide], the IC50 is below 1000 nM. Consider `Cc1cccc(NC(=O)Nc2nc(OCCc3ccccn3)cc(N3CCOCC3)n2)c1` [Compound 71, 1-[4-Morpholin-4-yl-6-(2-pyridin-2-yl-ethoxy)-pyrimidin-2-yl]-3-m-tolyl-urea], for which the IC50 is at least 1000 nM. For the molecule `CNc1cc(C(=O)Nc2ccc3[nH]c(C)c(C)c3c2)nc(N2CCOCC2)n1` [Compound 247, N-(2,3-dimethyl-1H-indol-5-yl)-6-(methylamino)-2-morpholino-pyrimidine-4-carboxamide], the IC50 is below 1000 nM. The result for `O=C(Nc1ccc2c(c1)CCC2)Nc1cc(N2CCOCC2)nc(OCCN2CCOCC2)n1` [Compound 120, 1-Indan-5-yl-3-[6-morpholin-4-yl-2-(2-morpholin-4-yl-ethoxy)-pyrimidin-4-yl]-urea] reads at least 1000 nM. As for `Cc1[nH]c2ccc(NC(=O)c3cc(N4CCN(C)CC4)nc(N4CCOCC4)n3)cc2c1C` [Compound 251, N-(2,3-dimethyl-1H-indol-5-yl)-6-(4-methylpiperazin-1-yl)-2-morpholinopyrimidine-4-carboxamide], the IC50 was below 1000 nM. As for `Cc1[nH]c2ccc(NC(=O)c3cc(N4CCCCC4)cc(N4CCOCC4)n3)cc2c1C` [Compound 182, 6′-Morpholin-4-yl-3,4,5,6-tetrahydro-2H-[1,4′]bipyridinyl-2′-carboxylic acid (2,3-dimethyl-1H-indol-5-yl)-amide], the 50% inhibitory concentration (IC50) is below 1000 nM. The result for `CN1CCCc2cc(NC(=O)c3cc(OCCN4CCOCC4)nc(N4CCOCC4)n3)ccc21` [Compound 318, 2-Morpholin-4-yl-6-(2-morpholin-4-yl-ethoxy)-pyrimidine-4-carboxylic acid (1-methyl-1,2,3,4-tetrahydro-quinolin-6-yl)-amide] reads at least 1000 nM. For the molecule `Cc1cccc(NC(=O)c2cc(N(C)CCO)nc(N3CCOCC3)n2)c1` [Compound 298, 6-[(2-Hydroxy-ethyl)-methyl-amino]-2-morpholin-4-yl-pyrimidine-4-carboxylic acid m-tolylamide], the half-maximal inhibitory concentration (IC50) was below 1000 nM. Regarding `Cc1cc(NC(=O)c2cc(OCCN3CCOCC3)nc(N3CCOCC3)n2)ccc1N(C)C` [Compound 288, 2-Morpholin-4-yl-6-(2-morpholin-4-yl-ethoxy)-pyrimidine-4-carboxylic acid (4-dimethylamino-3-methyl-phenyl)-amide], the IC50 was at least 1000 nM. As to `CN(C)c1cccc(NC(=O)c2cc(OCCO)nc(N3CCOCC3)n2)c1` [Compound 309, 6-(2-Hydroxy-ethoxy)-2-morpholin-4-yl-pyrimidine-4-carboxylic acid (3-dimethylamino-phenyl)-amide], the IC50 was below 1000 nM. On to `Cc1[nH]c2ccc(NC(=O)c3cc(OCCO)nc(N4CCOCC4)n3)cc2c1C` [Compound 307, 6-(2-Hydroxy-ethoxy)-2-morpholin-4-yl-pyrimidine-4-carboxylic acid (2,3-dimethyl-1H-indol-5-yl)-amide], for which the half-maximal inhibitory concentration (IC50) is below 1000 nM. As for `CCc1c(C)[nH]c2ccc(NC(=O)Nc3cc(N4CCN(C(C)=O)CC4)nc(N4CCOCC4)n3)cc12` [Compound 266, 1-(6-(4-acetylpiperazin-1-yl)-2-morpholinopyrimidin-4-yl)-3-(3-ethyl-2-methyl-1H-indol-5-yl)urea], the IC50 is below 1000 nM. The result for `CCc1c(C)[nH]c2ccc(NC(=O)Nc3cc(N4CCN(c5ccccn5)CC4)nc(N4CCOCC4)n3)cc12` [Compound 269, 1-(3-ethyl-2-methyl-1H-indol-5-yl)-3-(2-morpholino-6-(4-(pyridin-2-yl)piperazin-1-yl)pyrimidin-4-yl)urea] reads below 1000 nM.

With `O=C(Nc1ccc2[nH]ccc2c1)Nc1cc(OCCN2CCOCC2)nc(N2CCOCC2)n1` [Compound 137, 1-(1H-Indol-5-yl)-3-[2-morpholin-4-yl-6-(2-morpholin-4-yl-ethoxy)-pyrimidin-4-yl]-urea], the IC50 is below 1000 nM. `O=C(Nc1ccc2c(C(F)(F)F)cc(=O)oc2c1)c1cc(NCCN2CCOCC2)nc(N2CCOCC2)n1` [Compound 192, 2-morpholino-6-(2-morpholinoethylamino)-N-(2-oxo-4-(trifluoromethyl)-2H-chromen-7-yl)pyrimidine-4-carboxamide]: the IC50 was at least 1000 nM. On to `Cc1ccc(NC(=O)Nc2cc(N3CCOCC3)nc(OCCN3CCOCC3)n2)cc1C` [Compound 122, 1-(3,4-Dimethyl-phenyl)-3-[6-morpholin-4-yl-2-(2-morpholin-4-yl-ethoxy)-pyrimidin-4-yl]-urea], for which the IC50 is at least 1000 nM.

Consider `COCCN(C)c1cc(C(=O)Nc2cccc(N(C)C(C)=O)c2)nc(N2CCOCC2)n1` [Compound 166, 6-[(2-Methoxy-ethyl)-methyl-amino]-2-morpholin-4-yl-pyrimidine-4-carboxylic acid [3-(acetyl-methyl-amino)-phenyl]-amide], for which the 50% inhibitory concentration (IC50) was at least 1000 nM.

`O=C(Nc1ccc(Nc2ccccc2)cc1)c1cc(OCCN2CCOCC2)nc(N2CCOCC2)n1` [Compound 284, 2-Morpholin-4-yl-6-(2-morpholin-4-yl-ethoxy)-pyrimidine-4-carboxylic acid (4-phenylamino-phenyl)-amide]: the IC50 is at least 1000 nM. The result for `Cc1ccc([N+](=O)[O-])c(NC(=O)c2cc(OCCN3CCOCC3)nc(N3CCOCC3)n2)c1` [Compound 271, 2-Morpholin-4-yl-6-(2-morpholin-4-yl-ethoxy)-pyrimidine-4-carboxylic acid (5-methyl-2-nitro-phenyl)-amide] reads below 1000 nM; that for `COCCNc1cc(C(=O)Nc2ccc3[nH]c(C)c(C)c3c2)nc(N2CCOCC2)n1` [Compound 252, N-(2,3-dimethyl-1H-indol-5-yl)-6-(2-methoxyethylamino)-2-morpholinopyrimidine-4-carboxamide], below 1000 nM; that for `O=C(Nc1ccc2ccccc2c1)Nc1cc(N2CCOCC2)nc(OCCN2CCOCC2)n1` [Compound 124, 1-[6-Morpholin-4-yl-2-(2-morpholin-4-yl-ethoxy)-pyrimidin-4-yl]-3-naphthalen-2-yl-urea], at least 1000 nM.

The values above are taken from patent publication US20060223996A1, “IL-12 modulatory compounds” (Synta Pharmaceuticals Corp., priority 2004, published 2006).
